Assays:
[1] = test system: KE1 bladder cancer cell line (ERCC2-mutated derivative of KU19-19, NER-deficient); assay: In vitro drug sensitivity assay (CellTiter-Glo); type: cell-based; settings: NER-deficient KE1, compared with isogenic KU19-19; 48 to 72 hours
From the text: (§1) Bladder cancer cell lines were purchased from ATCC. The KE1 bladder cancer cell line is a derivative of KU19-19 in which an ERCC2 T484 mutation has been introduced by CRISPR/Cas9 gene editing as previously described (6). The MDA-MB-468 breast cancer cell line and its ERCC4-complemented derivative have been previously described (35). Small interfering RNAs (siRNAs) targeting specific NER genes as well as a non-targeting siRNA (siNTC) were purchased from Integrated DNA Technologies Inc. (Coralville, IA, USA; see Table 9 for sequences). Cells were seeded in 6-well plates and grown to 50% confluency. A transfection mixture containing siRNA diluted to a final concentration of 30 nM in Opti-MEM media containing Lipofectamine 3000 (Life Technologies; Carlsbad, CA) was then added to cells. After 48 hours, cells were trypsinized and re-aliquoted to separate wells and transfected with 15 nM siRNA for 24 hours immediately prior to viability assays performed as described below. […]
(§2) Cells were seeded in either 96-well (5,000 cells/well) or 24-well (20,000 cells/well) plates. […] Plates were scanned using a luminescence microplate reader (BioTek). […]

[2] = test system: SC14 (SW1710 derivative with ERCC2 P463L mutation); assay: In vitro drug sensitivity assay; type: cell-based; settings: ERCC2-mutant SC14 line compared with SW1710
From the text: as §1, §2

[3] = test system: cisplatin-resistant MDA-MB-468 cell line; assay: In vitro drug sensitivity assay in cisplatin-resistant derivative; type: cell-based; settings: cisplatin-resistant vs parental MDA-MB-468
Experimental: Cells were seeded in either 96-well (5,000 cells/well) or 24-well (20,000 cells/well) plates. The following day, irofulven and cisplatin stock solutions were serially diluted in media and added to cells. After 48 to 72 hours, media was removed and CellTiter-Glo® reagent (Promega; Madison, WI) was added. Plates were scanned using a luminescence microplate reader (BioTek). Survival at each drug concentration was plotted as a percentage of survival in drug-free media with error bars representing the standard deviation of at least three experiments.
Platinum-based chemotherapy is a first-line treatment for numerous solid malignancies including bladder cancer, but platinum resistance frequently occurs and represents a challenging clinical problem. Although a variety of platinum resistance mechanisms have been characterized, restoration or upregulation of DNA repair is a common mechanism of resistance, particularly in HR-deficient breast and ovarian tumors^33. Mechanisms of platinum resistance in NER deficient tumors have not been characterized, and we wished to determine if acquired resistance to cisplatin would confer cross-resistance to irofulven through restoration of NER. To test this, we derived cisplatin resistance in the NER-deficient MDA-MB-468 cell line by gradual exposure to escalating doses of cisplatin (Methods).

[4] = test system: muscle-invasive bladder cancer; assay: Pathologic response to neoadjuvant cisplatin-based chemotherapy, DFCI/MSKCC cohort; type: in vivo, human; settings: for complete response rate: all cases
From the text: (§3) To validate the ability of the NERDetect classifier to discriminate between ERCC2 mutant and WT bladder tumors, we analyzed WES data from three additional independent bladder cancer cohorts^53,0,31. The DFCI/MSK (n=50) and FCCC (n=48) cohorts are comprised of muscle-invasive bladder cancer patients who received neoadjuvant cisplatin-based chemotherapy followed by radical cystectomy, while the BGI cohort (n=98) included patients with MIBC or non-muscle-invasive bladder cancer.
(§4) Patients in the DFCI/MSK and FCCC cohorts were treated with cisplatin-based chemotherapy followed by radical cystectomy, and cisplatin responders were defined as those that had no residual invasive disease on pathologic examination of the cystectomy specimen.
(§5) Patients in the DFCI/MSK and Philadelphia cohorts were treated with cisplatin-based chemotherapy followed by radical cystectomy, and cisplatin responders were defined as patients with no residual invasive disease on pathologic examination of the cystectomy specimen.

[5] = test system: muscle-invasive bladder cancer; assay: Pathologic response to neoadjuvant cisplatin-based chemotherapy, Philadelphia (FCCC) cohort; type: in vivo, human
From the text: as §3, §4, §5

[6] = test system: MDA-MB-468 breast cancer cell line (NER deficient, ERCC4 silenced); settings: MDA-MB-468 with re-expression of WT ERCC4; previous work; cited from earlier work
[7] = test system: muscle-invasive and metastatic urothelial cancer; settings: cisplatin-based chemotherapy, first-line; cited from earlier work

## N.N.[Cl][Pt][Cl] [cisplatin]
[1]
  drug sensitivity (survival as percentage of drug-free media): increased sensitivity
[2]
  drug sensitivity: significantly increased sensitivity
[3]
  cisplatin IC50, cisplatin resistant cell line relative to parental: ~ 3.5 fold
[4]; WT ERCC2 patients, ERCC2mut score<0.70 (9 of 32)
  cisplatin responders: 28%
[4]; WT ERCC2 patients, ERCC2mut score≥0.70 (seven of nine)
  cisplatin responders: 78%
[4]; WT ERCC2 patients, NERDetect score<0.75 (10 of 31)
  cisplatin responders: 32%
[4]; WT ERCC2 patients, NERDetect score≥0.75 (six of eight)
  cisplatin responders: 75%
[4]; all 41 WT ERCC2 cases (16)
  cisplatin responders: 39%
[4]; ERCC2mut score<0.70 (10 of 33)
  complete response rate: 30%
[4]; ERCC2mut signature score≥0.70 (15 of 17)
  complete response rate: 88%
[4]; NERDetect score ≥0.75 (14 of 16)
  complete response rate: 87%
[4]; NERDetect score<0.75 (11 of 34)
  complete response rate: 32%
[5]; ERCC2mut score<0.70 (14 of 42)
  complete response rate: 33%
[5]; ERCC2mut signature score≥0.70 (all six)
  complete response rate: 100%
[5]; NERDetect score<0.75 (14 of 41)
  complete response rate: 34%
[5]; NERDetect score≥0.75 (six of seven)
  complete response rate: 86%
[6]
  cisplatin sensitivity after re-expression of ERCC4: could be rescued
[7]
  patients with an initial response: 60-70%

From patent US12691143B2, “Method for treating cancer” (priority 2020, dated 2026)
